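The compound was tested at five concentrations on cells cultured in 96-well plates, with a 48-hour exposure period. GI50: concentration for 50% inhibition of growth.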 Active and inactive are the calls of the source. No stated cut-off is given here; in the data, active = GI50 up to about 1.1 µM and inactive = higher.
Experiments:
Assay in all cases: DTP human tumour cell line panel, 48 h
EKVX = tested on: EKVX
KM12 = tested on: KM12
NCI-H226 = tested on: NCI-H226
DU-145 = tested on: DU-145
K562 = tested on: K562
UACC-62 = tested on: UACC-62
OVCAR-3 = tested on: OVCAR-3
IGROV-1 = tested on: IGROV-1
BT-549 = tested on: BT-549
MOLT-4 = tested on: MOLT-4
HOP-62 = tested on: HOP-62
Malme-3M = tested on: Malme-3M
SF-295 = tested on: SF-295
SNB-19 = tested on: SNB-19
SK-MEL-28 = tested on: SK-MEL-28
NCI-H23 = tested on: NCI-H23
SK-OV-3 = tested on: SK-OV-3
CAKI-1 = tested on: CAKI-1
CCRF-CEM = tested on: CCRF-CEM
SK-MEL-2 = tested on: SK-MEL-2

| Compound | GI50 (EKVX) | GI50 (KM12) | GI50 (NCI-H226) | GI50 (DU-145) | GI50 (K562) | GI50 (UACC-62) | GI50 (OVCAR-3) | GI50 (IGROV-1) | GI50 (BT-549) | GI50 (MOLT-4) | GI50 (HOP-62) | GI50 (Malme-3M) | GI50 (SF-295) | GI50 (SNB-19) | GI50 (SK-MEL-28) | GI50 (NCI-H23) | GI50 (SK-OV-3) | GI50 (CAKI-1) | GI50 (CCRF-CEM) | GI50 (SK-MEL-2) |
| --- | --- | --- | --- | --- | --- | --- | --- | --- | --- | --- | --- | --- | --- | --- | --- | --- | --- | --- | --- | --- |
| Nc1c(S(N)(=O)=O)cc(S(N)(=O)=O)cc1S(N)(=O)=O | > 100 µM (inactive) | > 100 µM (inactive) | > 100 µM (inactive) | > 100 µM (inactive) | > 100 µM (inactive) | > 100 µM (inactive) | > 100 µM (inactive) | > 100 µM (inactive) | > 100 µM (inactive) | > 100 µM (inactive) | > 100 µM (inactive) | > 100 µM (inactive) | > 100 µM (inactive) | > 100 µM (inactive) | > 100 µM (inactive) | > 100 µM (inactive) | > 100 µM (inactive) | > 100 µM (inactive) |  |  |
| CCOC(=O)CCC(C(=O)OCC)n1nc2ccc(Nc3c(C)[n+]([O-])c4cc(F)c(OCC)cc4[n+]3[O-])cc2n1 (configuration not stated) | 28.5 µM (inactive) | > 100 µM (inactive) | 36.7 µM (inactive) | > 100 µM (inactive) | > 100 µM (inactive) | 36.3 µM (inactive) | > 100 µM (inactive) | 78.5 µM (inactive) | 34 µM (inactive) | > 100 µM (inactive) | 17.5 µM (inactive) | > 100 µM (inactive) | 36.1 µM (inactive) | 31.9 µM (inactive) |  | 32.9 µM (inactive) | 31.9 µM (inactive) | > 100 µM (inactive) | > 100 µM (inactive) | 50.2 µM (inactive) |
| O=S(=O)(c1ccccc1)c1ccc(-c2nc(-c3ccc4c(c3)Sc3ccccc3S4)cs2)cc1 | 39.8 µM (inactive) | > 100 µM (inactive) | 67 µM (inactive) | > 100 µM (inactive) | 69 µM (inactive) | 25.6 µM (inactive) | > 100 µM (inactive) |  | 30.3 µM (inactive) | 31.6 µM (inactive) | 15.9 µM (inactive) | 39.5 µM (inactive) | 16.5 µM (inactive) | 11.7 µM (inactive) |  | 11.2 µM (inactive) | 18.9 µM (inactive) | > 100 µM (inactive) | 41.9 µM (inactive) |  |
| O=C1c2ccccc2CC12Cc1ccc3c(c1C2=O)CCCC3 (configuration not stated) | > 100 µM (inactive) | 41.4 µM (inactive) | 24 µM (inactive) | > 100 µM (inactive) | 21.6 µM (inactive) | 8.2 µM (inactive) | 12.6 µM (inactive) | 4.71 µM (inactive) | > 100 µM (inactive) | 4.35 µM (inactive) | 7.74 µM (inactive) | 82.2 µM (inactive) | 5.96 µM (inactive) | 20.7 µM (inactive) | 47.2 µM (inactive) |  | > 100 µM (inactive) |  | 49 µM (inactive) | > 100 µM (inactive) |
| Br[C@@H]1[C@H]2c3nc4ccccc4nc3[C@@H]1C[C@H]2Br | 86.1 µM (inactive) | 51.4 µM (inactive) | 31.3 µM (inactive) | 53 µM (inactive) | 47.5 µM (inactive) | > 100 µM (inactive) | 76.9 µM (inactive) | > 100 µM (inactive) | 65.5 µM (inactive) | 31.7 µM (inactive) | > 100 µM (inactive) | > 100 µM (inactive) | 74.3 µM (inactive) | > 100 µM (inactive) | > 100 µM (inactive) | 58.3 µM (inactive) | > 100 µM (inactive) | > 100 µM (inactive) | 37 µM (inactive) |  |
| O=C1CC(=O)n2cnc3cccc(c32)N1 | > 100 µM (inactive) | > 100 µM (inactive) | > 100 µM (inactive) | > 100 µM (inactive) | > 100 µM (inactive) | > 100 µM (inactive) | > 100 µM (inactive) | > 100 µM (inactive) | > 100 µM (inactive) |  | > 100 µM (inactive) | > 100 µM (inactive) | > 100 µM (inactive) | > 100 µM (inactive) | > 100 µM (inactive) | > 100 µM (inactive) | > 100 µM (inactive) | > 100 µM (inactive) | > 100 µM (inactive) | > 100 µM (inactive) |
| CN(c1c(Cl)cccc1Cl)S(=O)(=O)c1ccccc1[N+](=O)[O-] | > 100 µM (inactive) | > 100 µM (inactive) | > 100 µM (inactive) | > 100 µM (inactive) |  | > 100 µM (inactive) | > 100 µM (inactive) | > 100 µM (inactive) | > 100 µM (inactive) | > 100 µM (inactive) | > 100 µM (inactive) | > 100 µM (inactive) | > 100 µM (inactive) | > 100 µM (inactive) | > 100 µM (inactive) | > 100 µM (inactive) | > 100 µM (inactive) | > 100 µM (inactive) |  | > 100 µM (inactive) |
| CCCN(CCC)C(=S)Sc1nc(C)nc(N2CCN(c3nc(C)nc(SC(=S)N(CCC)CCC)c3[N+](=O)[O-])CC2)c1[N+](=O)[O-] | 30.5 µM (inactive) | 14.2 µM (inactive) | 21.8 µM (inactive) | 26.8 µM (inactive) | 1.11 µM (active) | 7.94 µM (inactive) |  | 11.4 µM (inactive) | 5.2 µM (inactive) | 3.23 µM (inactive) | 29.4 µM (inactive) | 18.8 µM (inactive) | 24.9 µM (inactive) | 22.6 µM (inactive) | 15.3 µM (inactive) | 12.4 µM (inactive) | 56.4 µM (inactive) | 9.16 µM (inactive) | 0.628 µM (active) | 7.16 µM (inactive) |
| O=C(NC1CCCCC1)N1CCNC1=S | 9.53 µM (inactive) | > 100 µM (inactive) | 45.3 µM (inactive) | > 100 µM (inactive) | > 100 µM (inactive) |  | > 100 µM (inactive) | > 100 µM (inactive) | 66.4 µM (inactive) | > 100 µM (inactive) | > 100 µM (inactive) | > 100 µM (inactive) | > 100 µM (inactive) |  | > 100 µM (inactive) | > 100 µM (inactive) | > 100 µM (inactive) | > 100 µM (inactive) | > 100 µM (inactive) | 2.94 µM (inactive) |
| N=C(/C=C/c1ccc(-c2cn3cc(/C=C/C(=N)N4CCOCC4)ccc3n2)cc1)N1CCOCC1 | > 100 µM (inactive) | > 100 µM (inactive) | > 100 µM (inactive) | > 100 µM (inactive) | > 100 µM (inactive) | > 100 µM (inactive) | > 100 µM (inactive) | > 100 µM (inactive) | > 100 µM (inactive) |  | > 100 µM (inactive) | > 100 µM (inactive) | > 100 µM (inactive) | > 100 µM (inactive) | > 100 µM (inactive) | > 100 µM (inactive) | > 100 µM (inactive) | > 100 µM (inactive) |  | > 100 µM (inactive) |
| Cc1cn(C2CC(N=[N+]=[N-])C(CO[Si](C)(C)C(C)(C)C)O2)c(=O)[nH]c1=O (configuration not stated) | 23.5 µM (inactive) | 15.8 µM (inactive) | 14.9 µM (inactive) | 21.6 µM (inactive) | 20.8 µM (inactive) | 14.6 µM (inactive) | 16.9 µM (inactive) | 18.7 µM (inactive) | 10.7 µM (inactive) | 26.7 µM (inactive) | 16.4 µM (inactive) | 14.3 µM (inactive) | 17.3 µM (inactive) | 19.8 µM (inactive) |  | 21.1 µM (inactive) | 18.4 µM (inactive) | 16.4 µM (inactive) | 24.5 µM (inactive) | 15.2 µM (inactive) |
| O=C(Cn1c2ccc(Br)cc2c2nc3ccccc3nc21)N1CCOCC1 |  | > 100 µM (inactive) | > 100 µM (inactive) | > 100 µM (inactive) | > 100 µM (inactive) | > 100 µM (inactive) | > 100 µM (inactive) | 49.7 µM (inactive) | > 100 µM (inactive) | > 100 µM (inactive) | > 100 µM (inactive) | > 100 µM (inactive) | > 100 µM (inactive) | > 100 µM (inactive) | > 100 µM (inactive) | 53 µM (inactive) | > 100 µM (inactive) | > 100 µM (inactive) | > 100 µM (inactive) | > 100 µM (inactive) |
| C=CCOc1ccc(C2C(C(=O)OCC)C(=O)CC(C)(O)C2C(=O)OCC)cc1OC (configuration not stated) | > 100 µM (inactive) | > 100 µM (inactive) | > 100 µM (inactive) | > 100 µM (inactive) | > 100 µM (inactive) | > 100 µM (inactive) | > 100 µM (inactive) | > 100 µM (inactive) | > 100 µM (inactive) | > 100 µM (inactive) | > 100 µM (inactive) | > 100 µM (inactive) | > 100 µM (inactive) | > 100 µM (inactive) | > 100 µM (inactive) | > 100 µM (inactive) |  | > 100 µM (inactive) | > 100 µM (inactive) | > 100 µM (inactive) |
| COc1cc2c[n+](C)c3c4cc(OC)c(OC)cc4c(OCc4ccccc4)cc3c2cc1OC | > 100 µM (inactive) | 2.1 µM (inactive) | 0.231 µM (active) | 1.08 µM (active) | 1.83 µM (inactive) | 0.434 µM (active) | 0.877 µM (active) |  | 0.32 µM (active) | 0.592 µM (active) | 1.86 µM (inactive) | 1.29 µM (inactive) | 4.89 µM (inactive) | 0.0681 µM (active) | 1.24 µM (inactive) | 1.32 µM (inactive) | 11.7 µM (inactive) | > 39.2 µM (inactive) |  | 1.63 µM (inactive) |
| COc1cc2c(/C=C3/C(=O)N(C)c4ccccc43)c(Cl)[nH]c2cc1C | 0.641 µM (active) | 0.132 µM (active) | 0.449 µM (active) | 0.246 µM (active) | 0.0966 µM (active) | 0.179 µM (active) | 0.116 µM (active) | 0.167 µM (active) | 0.321 µM (active) | 0.282 µM (active) | 0.286 µM (active) |  | 0.0964 µM (active) | 0.253 µM (active) | 8.38 µM (inactive) | 0.203 µM (active) | 0.184 µM (active) | 0.509 µM (active) | 0.303 µM (active) | 0.325 µM (active) |

— ChEMBL document CHEMBL1201862, “PubChem BioAssay data set” (2004)
